# From PubChem BioAssay AID2060892 (Molecular Pharmacology Branch, DTP, NCI, 2025)
# Test system: HOP-62 complex spheroids with HUVEC/MSC, viability
# Test: Anticancer human tumor HOP-62 cell line growth inhibition [RAS];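 note: spheroids exposed to agents for seven days before readout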;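 for viability, T/C: 100% = DMSO vehicle control viability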
# Conditions: for IC50: curve of first compound; for viability, T/C: stronger effect = lower value
# Outline: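 Tumour cells grown as complex spheroids with HUVEC endothelial cells and mesenchymal stem cells, treated with RAS pathway inhibitor combinations. Each agent spans half-log steps from near clinical Cmax, or 10 microM where Cmax is unknown.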
# [1] = second compound 0.000949 µM, first compound 0.0316 µM
# [2] = second compound 0.000949 µM, first compound 0.1 µM
# [3] = second compound 0.003 µM, first compound 0.0316 µM
# [4] = second compound 0.003 µM, first compound 0.1 µM
# [5] = second compound 0.00949 µM, first compound 0.0316 µM
# [6] = second compound 0.00949 µM, first compound 0.1 µM
# [7] = second compound 0.03 µM, first compound 0.0316 µM
# [8] = second compound 0.03 µM, first compound 0.1 µM
# [9] = second compound 0.0949 µM, first compound 0.0316 µM
# [10] = second compound 0.0949 µM, first compound 0.1 µM
# [11] = second compound 0.3 µM, first compound 0.0316 µM
# [12] = second compound 0.3 µM, first compound 0.1 µM
smiles,measurement,setting,value
CC(=O)OC12COC1CC(O)C1(C)C(=O)C(O)C3=C(C)C(OC(=O)C(O)C(NC(=O)OC(C)(C)C)c4ccccc4)CC(O)(C(OC(=O)c4ccccc4)C21)C3(C)C (centres undefined) + CCn1c(-c2cccnc2C(C)OC)c2c3cc(ccc31)N1CCOC(CC(NC(=O)C(C(C)C)N(C)C(=O)C3(F)CCN(C(=O)C#CC(C)(C)N(C)C)CC3)C(=O)N3CCCC(N3)C(=O)OCC(C)(C)C2)C1,IC50,second compound 0.000949 µM,< 31.6 nM
same,IC50,second compound 0.003 µM,< 31.6 nM
same,IC50,second compound 0.00949 µM,< 31.6 nM
same,IC50,second compound 0.03 µM,< 31.6 nM
same,IC50,second compound 0.0949 µM,< 31.6 nM
same,IC50,second compound 0.3 µM,< 31.6 nM
same,"viability, T/C",[1],31%
same,"viability, T/C",[2],29.6%
same,"viability, T/C","second compound 0.000949 µM, first compound 0.316 µM",20.6%
same,"viability, T/C","second compound 0.000949 µM, first compound 1 µM",34.7%
same,"viability, T/C","second compound 0.000949 µM, first compound 3.16 µM",48.4%
same,"viability, T/C","second compound 0.000949 µM, first compound 10 µM",45.6%
same,"viability, T/C",[3],32.6%
same,"viability, T/C",[4],32.1%
same,"viability, T/C","second compound 0.003 µM, first compound 0.316 µM",37%
same,"viability, T/C","second compound 0.003 µM, first compound 1 µM",33.3%
same,"viability, T/C","second compound 0.003 µM, first compound 3.16 µM",52.1%
same,"viability, T/C","second compound 0.003 µM, first compound 10 µM",39.7%
same,"viability, T/C",[5],30.8%
same,"viability, T/C",[6],31.6%
same,"viability, T/C","second compound 0.00949 µM, first compound 0.316 µM",29.4%
same,"viability, T/C","second compound 0.00949 µM, first compound 1 µM",36.3%
same,"viability, T/C","second compound 0.00949 µM, first compound 3.16 µM",39.3%
same,"viability, T/C","second compound 0.00949 µM, first compound 10 µM",43.2%
same,"viability, T/C",[7],31.4%
same,"viability, T/C",[8],32.9%
same,"viability, T/C","second compound 0.03 µM, first compound 0.316 µM",31%
same,"viability, T/C","second compound 0.03 µM, first compound 1 µM",35.4%
same,"viability, T/C","second compound 0.03 µM, first compound 3.16 µM",33.1%
same,"viability, T/C","second compound 0.03 µM, first compound 10 µM",46.4%
same,"viability, T/C",[9],34.2%
same,"viability, T/C",[10],34.1%
same,"viability, T/C","second compound 0.0949 µM, first compound 0.316 µM",36.6%
same,"viability, T/C","second compound 0.0949 µM, first compound 1 µM",37.3%
same,"viability, T/C","second compound 0.0949 µM, first compound 3.16 µM",34.9%
same,"viability, T/C","second compound 0.0949 µM, first compound 10 µM",42.1%
same,"viability, T/C",[11],28.1%
same,"viability, T/C",[12],40.2%
same,"viability, T/C","second compound 0.3 µM, first compound 0.316 µM",31.8%
same,"viability, T/C","second compound 0.3 µM, first compound 1 µM",37.9%
same,"viability, T/C","second compound 0.3 µM, first compound 3.16 µM",33.5%
same,"viability, T/C","second compound 0.3 µM, first compound 10 µM",36.9%
CC(C)n1nc(-c2ccc3oc(N)nc3c2)c2c(N)ncnc21 + CCn1c(-c2cccnc2C(C)OC)c2c3cc(ccc31)N1CCOC(CC(NC(=O)C(C(C)C)N(C)C(=O)C3(F)CCN(C(=O)C#CC(C)(C)N(C)C)CC3)C(=O)N3CCCC(N3)C(=O)OCC(C)(C)C2)C1,IC50,second compound 0.000949 µM,31.6 nM
same,IC50,second compound 0.003 µM,11.8 nM
same,IC50,second compound 0.00949 µM,10.9 nM
same,IC50,second compound 0.03 µM,17.3 nM
same,IC50,second compound 0.0949 µM,7 nM
same,IC50,second compound 0.3 µM,6.72 nM
same,"viability, T/C","second compound 0.000949 µM, first compound 0.000316 µM",118%
same,"viability, T/C","second compound 0.000949 µM, first compound 0.001 µM",107%
same,"viability, T/C","second compound 0.000949 µM, first compound 0.00316 µM",64.2%
same,"viability, T/C","second compound 0.000949 µM, first compound 0.01 µM",74.7%
same,"viability, T/C",[1],55.6%
same,"viability, T/C",[2],30.6%
same,"viability, T/C","second compound 0.003 µM, first compound 0.000316 µM",105%
same,"viability, T/C","second compound 0.003 µM, first compound 0.001 µM",81%
same,"viability, T/C","second compound 0.003 µM, first compound 0.00316 µM",58.8%
same,"viability, T/C","second compound 0.003 µM, first compound 0.01 µM",56.3%
same,"viability, T/C",[3],45.7%
same,"viability, T/C",[4],25.4%
same,"viability, T/C","second compound 0.00949 µM, first compound 0.000316 µM",94.9%
same,"viability, T/C","second compound 0.00949 µM, first compound 0.001 µM",64%
same,"viability, T/C","second compound 0.00949 µM, first compound 0.00316 µM",65.3%
same,"viability, T/C","second compound 0.00949 µM, first compound 0.01 µM",53.4%
same,"viability, T/C",[5],44.5%
same,"viability, T/C",[6],26.1%
same,"viability, T/C","second compound 0.03 µM, first compound 0.000316 µM",80.7%
same,"viability, T/C","second compound 0.03 µM, first compound 0.001 µM",75.6%
same,"viability, T/C","second compound 0.03 µM, first compound 0.00316 µM",71.1%
same,"viability, T/C","second compound 0.03 µM, first compound 0.01 µM",67.7%
same,"viability, T/C",[7],30.1%
same,"viability, T/C",[8],30.6%
same,"viability, T/C","second compound 0.0949 µM, first compound 0.000316 µM",85.7%
same,"viability, T/C","second compound 0.0949 µM, first compound 0.001 µM",67.8%
same,"viability, T/C","second compound 0.0949 µM, first compound 0.00316 µM",61%
same,"viability, T/C","second compound 0.0949 µM, first compound 0.01 µM",52.2%
same,"viability, T/C",[9],25.6%
same,"viability, T/C",[10],30%
same,"viability, T/C","second compound 0.3 µM, first compound 0.000316 µM",75.7%
same,"viability, T/C","second compound 0.3 µM, first compound 0.001 µM",77.8%
same,"viability, T/C","second compound 0.3 µM, first compound 0.00316 µM",59.8%
same,"viability, T/C","second compound 0.3 µM, first compound 0.01 µM",45.3%
same,"viability, T/C",[11],32.2%
same,"viability, T/C",[12],30.6%
